# Assay results published in patent US20110225663A1, “METHOD FOR PRODUCING EUKARYOTIC ORGANISMS WITH ENHANCED PATHOGEN RESISTANCE AND/OR RESISTANCE TO STRESS AND EUKARYOTIC TRANSGENIC ORGANISMS WITH ENHANCED PATHOGEN RESISTANCE AND/OR RESISTANCE TO STRESS” (WESTFAELISCHE WILHELMS-UNIVERSITAET MUENSTER, priority 2008, published 2011).
# Key:
# G6PDH = assay: Inhibitor study with Glucosamine-6-P in tobacco leaves infected with P. nicotianae; type: in vivo
# Description: The involvement of the oxidative pentose phosphate pathway (OPPP) in the oxidative burst of plants was shown by inhibitor studies with Glucosamine-6 phosphate (Glucosamine-6-P). This is a well-known competitive inhibitor for G6PDH (as described in Glaser B L and Brown D H: Purification and properties of D-glucose 6-phosphate dehydrogenase, J Biol Chem 216, pp 67-79 (1955)), the first enzyme of the OPPP, which transforms G6P into 6-phosphogluconolactone.
# Hydrogen peroxide (H2O2) accumulation was detected by in situ staining with 3,3-diaminobenzidine (DAB) following a modified protocol of Thordal-Christensen H, Zhang Z G, Wei Y D, Collinge D B: Subcellular localization of H2O2 in plants: H2O2 accumulation in papillae and hypersensitive response during the barley-powdery mildew interaction, Plant J 11, pp 1187-1194 (1997). Leaves were placed in DAB solution (1 mg mL^−1, pH 3.8) for 6 h. A dark-brown polymerization product formed at sites where DAB reacts with H2O2 produced by the tissue. Incubations were stopped and leaf tissue was simultaneously cleared from chlorophyll by boiling in ethanol for 10 min.
# [1] = test system: Arabidopsis glucose-6-phosphate dehydrogenase P2 (At1g24280), recombinant enzyme with C-terminal Strep-tag; conditions: cited from earlier work
# NADPH oxidase = test system: NADPH oxidase
# Description: This leads to the formation of hypersensitive lesions in leaf tissue of resistant varieties after pathogen infection (incompatible interaction).
# [2] = target: Arabidopsis thaliana glucose-6-phosphate dehydrogenase isoform At1g24280 (P2 class), N-terminally truncated without transit peptide (cP2, 5′ delta 195 bp) (Arabidopsis thaliana, UniProt Q8L743); assay: biochemical
# [3] = FIG. 2 bottom, infiltrated tobacco leaf
# Sequence of Arabidopsis thaliana glucose-6-phosphate dehydrogenase isoform At1g24280 (P2 class), N-terminally truncated without transit peptide (cP2, 5′ delta 195 bp) (Q8L743 67-599): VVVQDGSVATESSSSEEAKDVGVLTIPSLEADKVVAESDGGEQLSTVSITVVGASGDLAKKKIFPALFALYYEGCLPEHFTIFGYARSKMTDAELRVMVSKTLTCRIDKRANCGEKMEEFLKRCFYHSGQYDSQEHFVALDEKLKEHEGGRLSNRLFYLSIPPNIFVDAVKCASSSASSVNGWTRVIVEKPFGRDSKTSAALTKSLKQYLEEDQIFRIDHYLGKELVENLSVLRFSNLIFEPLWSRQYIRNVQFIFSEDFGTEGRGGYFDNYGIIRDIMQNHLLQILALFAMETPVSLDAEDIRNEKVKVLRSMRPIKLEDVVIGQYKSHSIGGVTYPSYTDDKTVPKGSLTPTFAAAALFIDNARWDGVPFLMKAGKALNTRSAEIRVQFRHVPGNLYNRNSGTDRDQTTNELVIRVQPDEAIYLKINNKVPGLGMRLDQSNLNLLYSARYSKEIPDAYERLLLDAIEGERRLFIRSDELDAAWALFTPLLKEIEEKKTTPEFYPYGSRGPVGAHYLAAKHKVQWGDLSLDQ
smiles,measurement,setting,value
"N[C@@H]1[C@@H](O)[C@H](O)[C@@H](COP(=O)(O)O)O[C@@H]1O [GN6P, Glucosamine-6 phosphate]",defence-induced H2O2 production (DAB-staining) and formation of hypersensitive lesions,G6PDH; [3],Interference
same,ROS production after infection with P. nicotianae,G6PDH; tobacco leaves treated with 25-50 mM GN6P,did not result in detectable ROS production
"NC(=O)c1ccc[n+]([C@@H]2O[C@H](COP(=O)(O)OP(=O)(O)OC[C@H]3O[C@@H](n4cnc5c(N)ncnc54)[C@H](OP(=O)(O)O)[C@@H]3O)[C@@H](O)[C@H]2O)c1 [NADP+, nicotinamide-dinucleotide phosphate, oxidized form]",Km,"[1]; read-out: Km[NADP+], Wakao and Benning (2005)",17 µM
"c1ccc2c(c1)[I+]c1ccccc1-2 [DPI, diphenylene iodonium]",defence-induced H2O2 production (DAB-staining) and formation of hypersensitive lesions,NADPH oxidase; [3],Interference
same,formation of hypersensitive lesions after infection with P. nicotianae,NADPH oxidase; tobacco leaves treated with 25-100 mM DPI,did not induce the formation of hypersensitive lesions
"NC(=O)C1=CN([C@@H]2O[C@H](COP(=O)(O)OP(=O)(O)OC[C@H]3O[C@@H](n4cnc5c(N)ncnc54)[C@H](OP(=O)(O)O)[C@@H]3O)[C@@H](O)[C@H]2O)C=CC1 [NADPH, nicotinamide-dinucleotide phosphate, reduced form]",Ki,[2],4.6 µM
same,Ki,"[1]; Wakao and Benning (2005), read-out: Ki[NADPH]",22 µM
